ChEMBL document CHEMBL3638751, “5-alkynyl-pyridines” (2013)

Target: Phosphatidylinositol 4,5-bisphosphate 3-kinase catalytic subunit alpha isoform (Homo sapiens, UniProt P42336)
Assay: Filter-Binding-Assay: This PI3Kalpha assay provides an IC50 value indicative of the activity of the compounds to inhibit PI3 kinase alpha activity. Inhibition of PI3 kinase would be expected to be indicative of activity in treating conditions of excessive or anomalous cell proliferation, such as cancers. See also J. A. Engelman, Nature Reviews Cancer, 2009, 9, 550-562; A. Carnero, Expert Opin. Investig. Drugs, 2009, 18, 1265-1277 and P. Liu et al., Nature Reviews Drug Discovery, 2009, 8, 627-64.

Chain of Phosphatidylinositol 4,5-bisphosphate 3-kinase catalytic subunit alpha isoform (P42336 whole entry, canonical isoform): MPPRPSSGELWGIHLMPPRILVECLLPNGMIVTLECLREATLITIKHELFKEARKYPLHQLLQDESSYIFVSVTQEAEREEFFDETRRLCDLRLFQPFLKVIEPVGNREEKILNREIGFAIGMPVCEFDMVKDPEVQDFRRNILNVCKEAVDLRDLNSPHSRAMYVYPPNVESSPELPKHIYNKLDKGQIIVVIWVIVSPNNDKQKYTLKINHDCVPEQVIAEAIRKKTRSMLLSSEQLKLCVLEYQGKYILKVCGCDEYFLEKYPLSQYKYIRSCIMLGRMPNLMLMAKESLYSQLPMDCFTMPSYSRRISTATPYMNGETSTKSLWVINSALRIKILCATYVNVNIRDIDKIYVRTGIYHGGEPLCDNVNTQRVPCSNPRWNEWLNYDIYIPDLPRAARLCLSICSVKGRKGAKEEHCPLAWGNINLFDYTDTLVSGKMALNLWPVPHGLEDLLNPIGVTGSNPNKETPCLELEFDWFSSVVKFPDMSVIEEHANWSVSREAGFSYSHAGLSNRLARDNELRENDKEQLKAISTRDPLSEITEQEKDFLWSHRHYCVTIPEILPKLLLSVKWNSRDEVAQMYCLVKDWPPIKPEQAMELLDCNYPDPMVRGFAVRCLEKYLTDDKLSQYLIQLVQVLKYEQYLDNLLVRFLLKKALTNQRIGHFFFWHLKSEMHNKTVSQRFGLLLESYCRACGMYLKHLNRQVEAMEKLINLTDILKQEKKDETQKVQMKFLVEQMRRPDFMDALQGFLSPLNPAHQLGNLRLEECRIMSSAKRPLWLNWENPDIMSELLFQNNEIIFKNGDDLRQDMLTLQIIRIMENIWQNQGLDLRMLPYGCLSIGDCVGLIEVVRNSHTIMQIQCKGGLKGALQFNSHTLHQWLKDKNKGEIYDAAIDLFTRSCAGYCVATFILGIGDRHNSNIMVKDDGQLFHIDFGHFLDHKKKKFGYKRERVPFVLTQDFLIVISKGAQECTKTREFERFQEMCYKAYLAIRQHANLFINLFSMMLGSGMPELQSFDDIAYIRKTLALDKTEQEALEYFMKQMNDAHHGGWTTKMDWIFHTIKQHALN

Compound | IC50
Cc1ncc(C#Cc2c(C)ncnc2N2CCOCC2)cc1NS(=O)(=O)c1cnn(C)c1 | 0.56 nM
CCc1ncnc(N2CCC(O)CC2)c1C#Cc1cnc(C)c(NS(C)(=O)=O)c1 | 0.86 nM
